Experimental data published in patent publication US20080096807A1, “Cyclic vasoactive intestinal peptide receptor-2 agonists” (priority 2006, published 2008).
Bridge positions count the residues as written; N and C are the ends. Square brackets hold non-standard residues; d marks the D form. Peptide text beside a SMILES is read from it. ξ: configuration not given here. Thr(3ξ) = CC(O)[C@H](N)C(=O)O; αMeV = CC(C)[C@](C)(N)C(=O)O; Nle = CCCC[C@H](N)C(=O)O

Tests used:
VPAC2 receptor = biological target: T1, VPAC2 receptor (Homo sapiens, UniProt P41587); assay: Sup-T1 cAMP agonist assay; assay type: cell-based; conditions: human T-lymphoid cell line Sup-T1 expressing VPAC2 receptor; cAMP EIA; 5 min at room temperature; read-out: Sup-T1 cAMP EC50
T1 construct: The human T-lymphoid cell line Sup-Ti, which expresses the VPAC2 receptor; host or cells: Sup-T1 (Sup-Ti [sic]) human T-lymphoid cell line
T1 sequence (P41587 24-438): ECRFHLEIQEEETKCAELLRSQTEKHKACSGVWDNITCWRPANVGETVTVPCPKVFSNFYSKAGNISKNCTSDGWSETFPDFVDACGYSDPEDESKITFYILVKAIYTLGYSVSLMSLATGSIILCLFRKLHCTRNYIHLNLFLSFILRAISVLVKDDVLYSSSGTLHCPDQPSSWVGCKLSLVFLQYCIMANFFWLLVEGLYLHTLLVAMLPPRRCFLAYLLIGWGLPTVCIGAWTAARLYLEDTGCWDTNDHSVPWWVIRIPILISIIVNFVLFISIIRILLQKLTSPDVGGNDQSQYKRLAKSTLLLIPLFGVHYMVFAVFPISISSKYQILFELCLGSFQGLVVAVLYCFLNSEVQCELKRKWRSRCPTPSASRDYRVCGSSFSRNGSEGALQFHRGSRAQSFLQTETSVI
Summary of the method: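 Sup-T1 human T-lymphoid cells with endogenous VPAC2 (RPMI 1640, 25 mM HEPES, 10% FBS) were plated at 4×10^4 cells/well and exposed to compound for 5 min at room temperature. After lysis, cAMP was measured by enzyme immunoassay. EC50 came from a sigmoidal fit of 7-concentration dose-response data.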

[1] = test system: LPS-induced lung inflammation in male C57BL/6 mice; assay: LPS-induced lung inflammation in male C57BL/6 mice (BAL neutrophilia); assay type: in vivo; conditions: Dose 0.01%, BAL fluid neutrophilia
Description: C57bl/6 mice are pretreated with vehicle or drug prior to an aerosol expose to lipopolysacchride (LPS, 500 μg/ml in sterile saline) for 15-30 minutes. The aerosol is generated by a Pari Ultra neb jet nebulizer, the outlet of which is connected to a small clear plastic chamber [H×W×D, 10.7×25.7×11 cm (4×10×4.5 in)] containing the animals. Bronchoalveolar lavage (BAL) is performed 24 hr later to determine the intensity of cell inflammation. BAL procedure is performed as described below.
Mice are pretreated with vehicle or drug prior to an intranasal administration of lipopolysacchride (0.05-0.3 mg/kg in sterile saline; 50 μl total volume, 25 μl/nostril). Intranasal administration is performed by presenting small droplets of the dosing solution at the nostril using a 25-50 μl eppendorff pipet. BAL is performed 3 to 24 h post LPS challenged as described above to determine the intensity of cell inflammation.
24 h following LPS exposure, animals are anesthetized with pentobarbital (80-100 mg/kg, i.p.), ketamine/xyzaline (80-120 mg/kg/2-4 mg/kg, i.p.) or urethane (1.5-2.4 g/kg, i.p.); and through a small midline neck incision (15-20 mm), the trachea is exposed and cannulated with 20-gauge tubing adapter. Lungs are lavaged with 2×1 ml sterile Hank's balanced salt solution without Ca++ and Mg++(HBSS). Lavage fluid is recovered after 30 sec by gentle aspiration and pooled for each animal. Samples are then centrifuged at 2000 rpm for 10 minutes at 5° C. Supernatant is aspirated, and red blood cells are lysed from the resulting pellet with 0.5 ml distilled water for 30 sec before restoring osmolarity to the remaining cells by the addition of 5 ml of HBSS. Samples are recentrifuged at 2000 rpm for 10 minutes at 5° C. and supernatant aspirated. The resulting pellet is resuspended in 1 ml of HBSS. Total cell number is determined by Trypan Blue (Sigma Chemical, St. Louis, Mo.) exclusion from an aliquot of cell suspension using a hemocytometer or coulter counter. For differential cell counts, an aliquot of the cell suspension is centrifuged in a Cytospin (5 min, 1300 rpm; Shandon Southern Instruments, Sewickley, Pa.) and the slides fixed and stained with a modified Wright's stain (Hema 3 stain kit, Fisher Scientific). Standard morphological criteria is used in classifying at least 300 cells under light microscopy. Data in Table 3 is expressed as BAL cells×10^4/animal for neutrophils and total cells, or percent inhibition of the LPS induced BAL fluid neutrophilia response.

[2] = test system: methacholine-induced bronchospasm in mice; assay: Methacholine-induced bronchospasm in mice (whole body plethysmography, Penh); assay type: in vivo; conditions: balb/c mice; drug by aerosol for 20 minutes before spasmogen challenge; relative to vehicle
Description: Respiratory function is measured in conscious, freely moving mice using whole body plethysmographs (WBP) from BUXCO Electronics, Inc. (Troy, N.Y.). WBP chambers allow animals to move freely within the chamber while respiratory function is measured. Eight chambers are used simultaneously so that eight mice can be measured at the same time. Each WBP chamber is connected to a bias flow regulator to supply a smooth, constant flow of fresh air during testing. A transducer attached to each chamber detects pressure changes that occur as the animal breathes. Pressure signals are amplified by a MAX II Strain Gauge preamplifier and analyzed by the Biosystem XA software supplied with the system (BUXCO Electronics, Inc.). Pressure changes within each chamber are calibrated prior to testing by injecting exactly 1 ml of air through the injection port and adjusting the computer signal accordingly. Mice are placed in the WBP chambers and allowed to acclimate for 10 minutes prior to testing. Testing is conducted by letting the animals move and breathe freely for 15 minutes while the following parameters are measured: Tidal Volume (ml), Respiratory Rate (breaths per minutes), Minute Volume (tidal volume multiplied by respiratory rate, ml/min), Inspiratory Time (sec), Expiratory Time (sec), Peak Inspiratory Flow (ml/sec), and Peak Expiratory Flow (ml/sec). Raw data for each of the parameters listed above are captured in the software database and averaged once per minute to give a total of 15 data points per parameter. The average of the 15 data points is reported. Accumulated Volume (ml) is a cumulative value (not averaged) and represents the sum of all tidal volumes for the 15-minute test session. The protocol is customized to include measurements before, during, and after a spasmogen challenge to determine Penh. Dose-response effects of a particular spasmogen (i.e. methacholine (MCh), acetylcholine, etc.) are obtained by giving nebulized aerosol (30-60 sec exposure) at approximately 5-10 min intervals. Mice (balb/c) are treated with vehicle (2% DMSO in H2O) or drug dissolved in 4 ml vehicle for 20 minutes by aerosol, as described above, prior to spasmogen challenge. Penh is determined at 5, 30 and 60 minutes post-challenge. Data are reported as percent inhibition of Penh relative to vehicle.

[3] = biological target: T2, human neutrophil elastase (Homo sapiens, UniProt P08246); assay: Peptide stability to neutrophil elastase (RP HPLC ESI MS); conditions: halftime with human neutrophil elastase 1 to 2 μg/mL in PBS, ambient temperature, normalized to halftime of the reference standard
T2 sequence (P08246 30-247 limits assumed): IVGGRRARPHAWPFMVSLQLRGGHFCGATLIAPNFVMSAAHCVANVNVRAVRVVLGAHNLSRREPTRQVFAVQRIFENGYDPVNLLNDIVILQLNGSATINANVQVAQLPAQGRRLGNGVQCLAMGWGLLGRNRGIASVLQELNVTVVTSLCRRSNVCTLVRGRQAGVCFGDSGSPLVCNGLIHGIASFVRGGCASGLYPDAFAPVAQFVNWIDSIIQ
Description: The proteolytic stabilities of peptide analogs were established with reversed phase high pressure liquid chromatography (RP HPLC) electrospray ionization mass spectrometry (ESI MS). Peptide analogs were incubated with human neutrophile elastase and the quantity of undigested analogs was determined by ESI MS at appropriate time points. Multiple peptide analogs could be included in one experiment as long as they could be differentiated by HPLC retention time and/or by molecular weight. Ac-His Ac-[sequence]Nle-[sequence]NH2 was used in all experiments as a control and as a reference standard. The simultaneous use of multiple peptide analogs together with a reference standard allowed for compensation for variations in the proteolytic fidelity of the enzyme over the multiple experiments. Integrated ion currents obtained for the individual undigested peptide were used for quantitation. For calculation of halftime first-order kinetic behavior was assumed and all calculations were normalized to the halftime of the reference standard.
Peptide stock solutions were prepared in water to a concentration of 2.5 mg/mL. Unless in use, all stock solutions were kept at −20° C. […] Concentrations of the peptide analogs were adjusted accordingly. In order to do the proteolytic digestion, peptides were dissolved in phosphate buffered saline (PBS) to a concentration of 0.1 mg/mL. As many as six different peptide analogs were mixed into one 50 μL reaction volume. The reference standard was added to all experiments as a reference and internal standard. Elastase (Human Neutrophil, Calbiochem, Cat # 324681) was added from an elastase stock solution to a concentration of 1 to 2 μg/mL. Different amounts of the enzyme were chosen to compensate for the differences in the proteolytic stabilities of the peptide analogs. Previously, a stock solution of elastase was prepared in water at a concentration of 1 mg/mL. Small aliquots of the enzyme stock solution were kept at −20° C. to better maintain the enzyme activity by limiting the number of thaw and freeze cycles.
The digestion was done at ambient temperature in an autosampler tube within the autosampler of the HPLC system (Agilent 1100 Series). For a time course, 5 μL aliquots were injected in 70 minute intervals onto the reversed phase HPLC column (Phenomenex, Luna C18, 3μ, 100 ↑, 150×2.00 mm). For the starting time point an aliquot was injected just prior to the addition of the proteolytic enzyme. A total of eight time points could be recorded from one experiment, including the starting point. Peptides were separated on the reversed phase column with a 50 minute gradient of 5% to 30% organic phase. The aqueous phase was 0.05% (v/v) of trifluoroacetic acid in water and the organic one was 0.045% (v/v) of trifluoroacetic acid in acetonitrile. Absorbances were recorded at 214 and 280 nm respectively. All of the column effluent was introduced into the turbo V source of the electrospray ionization mass spectrometer (ABI 4000 QTrap LC/MS/MS System). Mass spectra were acquired in Q3MS mode in a mass range to include all triply charged ions of the non degraded peptide analogs. Care was taken to assure that peptide analogs could clearly be differentiated either by the chromatographic retention time or by the difference in molecular weight. Relative quantities of the respective undigested peptide analog were calculated from the integrated total ion current. A window of 2.5 Da was chosen and the manufacturer's software was used to integrate the individual ion currents. The overall halftime of an individual peptide analog was calculated by assuming first-order kinetic behavior and was normalized with respect to the halftime of the reference standard.

[4] = biological target: Ac-His-Ala-Asp-Ala-MeVal-Phe-Thr-Glu-Asn-Tyr-Thr-Lys-Leu-Arg-Lys-Gln-Nle-Ala-Ala-Lys-Lys-Tyr-Leu-Asn-Asp-Leu-Leu-Lys-Gly-Gly-Thr-NH2 (Artificial Sequence); conditions: scale: relative to the halftime of the reference standard
[5] = biological target: Ac-His-Ala-Asp-Ala-MeVal-Phe-Thr-Glu-Asn-Tyr-Thr-Lys-Leu-Arg-Lys-Gln-Nle-Ala-Ala-Lys-Lys-Tyr-Leu-Asn-Asp-Leu-Lys-Lys-Gly-Gly-Thr-NH2 (Artificial Sequence); conditions: scale: relative to the halftime of the reference standard
[6] = biological target: Ac-His-Ser-Asp-Ala-MeVal-Phe-Thr-Glu-Asn-Tyr-Thr-Lys-Leu-Arg-Lys-Arg-Nle-Ala-Ala-Lys-Lys-Tyr-Leu-Asn-Asp-Leu-Lys-Lys-Gly-Gly-Thr-NH2 (Artificial Sequence); conditions: scale: relative to the halftime of the reference standard
[7] = biological target: Ac-His-Ser-Asp-Ala-MeVal-Phe-Thr-Glu-Asn-Tyr-thr-Lys-Leu-Arg-Lys-Gln-Nle-Ala-Ala-Lys-Lys-Tyr-Leu-Asn-Asp-Leu-Leu-Lys-Gly-Gly-Thr-NH2 (Artificial Sequence); conditions: scale: relative to the halftime of the reference standard

EC50 (VPAC2 receptor)	Relative elastase stability [3]	Relative elastase stability [4]	Relative elastase stability [5]	Relative elastase stability [6]	Relative elastase stability [7]	Compound	Inhibition of LPS-induced neutrophilia [1]	Inhibition of Penh at 5 minutes post-challenge [2]
68.4 nM	3.3	–	–	–	–	CCCC[C@H](NC(=O)[C@H](CCCNC(=N)N)NC(=O)[C@H](CCCCN)NC(=O)[C@H](CCCNC(=N)N)NC(=O)[C@H](CC(C)C)NC(=O)[C@H](CCCCN)NC(=O)[C@@H](NC(=O)[C@H](Cc1ccc(O)cc1)NC(=O)[C@H](CC(N)=O)NC(=O)[C@H](CCC(=O)O)NC(=O)[C@@H](NC(=O)[C@H](Cc1ccccc1)NC(=O)[C@H](CO)NC(=O)[C@H](C)NC(=O)[C@H](CC(=O)O)NC(=O)[C@H](CO)NC(=O)[C@H](Cc1c[nH]cn1)NC(C)=O)C(C)O)C(C)O)C(=O)N[C@@H](CCC(=O)O)C(=O)N[C@@H](C)C(=O)N[C@@H](CCCCN)C(=O)N[C@H]1CCCCNC(=O)C[C@@H](C(=O)N[C@@H](CC(C)C)C(=O)N[C@@H](CC(C)C)C(=O)N[C@@H](CCCCN)C(=O)NCC(=O)NCC(=O)N[C@H](C(N)=O)C(C)O)NC(=O)[C@H](CC(N)=O)NC(=O)[C@H](CC(C)C)NC(=O)[C@H](Cc2ccc(O)cc2)NC1=O (stereo partly shown) [Example 19] (Ac-HSDASF[Thr(3ξ)]ENY[Thr(3ξ)]KLRKR[Nle]EAKKYLNDLLKGG[Thr(3ξ)]-NH2; lactam 21-25)	+ (+ 10-30%)	+ (+ >50%)
2.35 nM	6	–	–	–	–	CCCC[C@H](NC(=O)[C@H](CCC(N)=O)NC(=O)[C@H](CCCCN)NC(=O)[C@H](CCCNC(=N)N)NC(=O)[C@H](CC(C)C)NC(=O)[C@H](CCCCN)NC(=O)[C@@H](NC(=O)[C@H](Cc1ccc(O)cc1)NC(=O)[C@H](CC(N)=O)NC(=O)[C@H](CCC(=O)O)NC(=O)[C@@H](NC(=O)[C@H](Cc1ccccc1)NC(=O)[C@@](C)(NC(=O)[C@H](C)NC(=O)[C@H](CC(=O)O)NC(=O)[C@H](CO)NC(=O)[C@H](Cc1c[nH]cn1)NC(C)=O)C(C)C)C(C)O)C(C)O)C(=O)N[C@@H](C)C(=O)N[C@@H](C)C(=O)N[C@@H](CCCCN)C(=O)N[C@H]1CCCCNC(=O)C[C@@H](C(=O)N[C@@H](CC(C)C)C(=O)N[C@@H](CCCCN)C(=O)N[C@@H](CCCCN)C(=O)NCC(=O)NCC(=O)N[C@H](C(N)=O)C(C)O)NC(=O)[C@H](CC(N)=O)NC(=O)[C@H](CC(C)C)NC(=O)[C@H](Cc2ccc(O)cc2)NC1=O (stereo partly shown) [Example 6] (Ac-HSDA[αMeV]F[Thr(3ξ)]ENY[Thr(3ξ)]KLRKQ[Nle]AAKKYLNDLKKGG[Thr(3ξ)]-NH2; lactam 21-25)	++ (++ >30%)	++ (++ <50%)
7.4 nM	5.2	–	–	–	–	CCCC[C@H](NC(=O)[C@H](CCC(N)=O)NC(=O)[C@H](CCCCN)NC(=O)[C@H](CCCNC(=N)N)NC(=O)[C@H](CC(C)C)NC(=O)[C@H](CCCCN)NC(=O)[C@@H](NC(=O)[C@H](Cc1ccc(O)cc1)NC(=O)[C@H](CC(N)=O)NC(=O)[C@H](CCC(=O)O)NC(=O)[C@@H](NC(=O)[C@H](Cc1ccccc1)NC(=O)[C@H](CO)NC(=O)[C@H](C)NC(=O)[C@H](CC(=O)O)NC(=O)[C@H](C)NC(=O)[C@H](Cc1c[nH]cn1)NC(C)=O)C(C)O)C(C)O)C(=O)N[C@@H](C)C(=O)N[C@@H](C)C(=O)N[C@@H](CCCCN)C(=O)N[C@H]1CCCCNC(=O)C[C@@H](C(=O)N[C@@H](CC(C)C)C(=O)N[C@@H](CCCCN)C(=O)N[C@@H](CCCCN)C(=O)NCC(=O)NCC(=O)N[C@H](C(N)=O)C(C)O)NC(=O)[C@H](CC(N)=O)NC(=O)[C@H](CC(C)C)NC(=O)[C@H](Cc2ccc(O)cc2)NC1=O (stereo partly shown) [Example 12] (Ac-HADASF[Thr(3ξ)]ENY[Thr(3ξ)]KLRKQ[Nle]AAKKYLNDLKKGG[Thr(3ξ)]-NH2; lactam 21-25)	+ (+ 10-30%)	+ (+ >50%)
–	–	3.6	5.7	1.8	3.4	Elastase (Human Neutrophil, Calbiochem, Cat # 324681) (from UniProt P08246) (enzyme)	–	–
